Reference: patent US20200354331A1, “ICARIIN DERIVATIVES” (H. LEE MOFFITT CANCER CENTER AND RESEARCH INSTITUTE, INC., priority 2014, published 2020)

How the values were obtained:
Test in all cases: Apoptosis rates of ICT in cell lines
Assay type in all cases: cell-based
Raji = system: Raji
U937 = system: U937
B16 = system: B16

COc1ccc(-c2oc3c(CCC(C)(C)O)c(O)cc(O)c3c(=O)c2O)cc1 [ICT, 3,5,7-trihydroxy-4′-methoxy-8-(3-hydroxy-3-methylbutyl)-flavone]
Apoptosis rates (Raji; 5 μM): 9.1% | Apoptosis rates (Raji; 10 μM): 9.2% | Apoptosis rates (Raji; 20 μM): 10.0% | Apoptosis rates (U937; U937, 5 μM): 3.1% | Apoptosis rates (U937; U937, 10 μM): 2.6% | Apoptosis rates (U937; U937, 20 μM): 2.7% | Apoptosis rates (B16; B16, 5 μM): 2.5% | Apoptosis rates (B16; B16, 10 μM): 3.8% | Apoptosis rates (B16; B16, 20 μM): 3.5%
